Measured values reported in EP0188647B1, “Acylated derivatives of cytidine-diphosphate-choline, process for their preparation and their therapeutic use” (NEOPHARMED S.p.A., priority 1985, dated 1986).

[1] = control experiment, oral, 20 µmoles/kg, after 30 minutes, intestinal level

From the text: The required data refer to the distribution of radioactivity in the animal and also to structural identity of the radioactive molecular species present in some of the more significant biological samples (liver, brain, faeces, gastric and intestinal contents).
The scheme of extraction consents the recovery of three different classes of labelled metabolites: • 1) Hydrosoluble metabolites, subsequently analysed by HPLC. • 2) Metabolites with high molecular weights, proteins and nucleic acids, recovered by thermal denaturation in a hydroalcoholic environment. • 3) Lipids, subsequently purified by chromatography on silica.

time of maximum uptake in the plasmatic component and in the organs (rat, in vivo, po) [h] | total radioactivity, of that present in the administered dose (rat, in vivo, po) [%] | Structure (SMILES) | double labelled CDP-choline administered found at intestinal level [1] [%] | radioactivity present in the dose found at intestinal level [1]
– | – | C[N+](C)(C)CCOP(=O)(O)OP(=O)([O-])OC[C@H]1O[C@@H](n2ccc(N)nc2=O)[C@H](O)[C@@H]1O [CDP-choline, Cytidine-diphosphate-choline] | 0.2 | not more than 5%
5 | 30 | CCCCC(=O)Nc1ccn([C@@H]2O[C@H](COP(=O)(O)OP(=O)([O-])OCC[N+](C)(C)C)[C@@H](OC(=O)CCCC)[C@H]2OC(=O)CCCC)c(=O)n1 [trivaleryl-CDP-choline, N4-valeryl-2',3'-di-O-valeryl-CDP-choline] | – | –
